Results reported in PubChem BioAssay (NCI).
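1) Cells in 96-well plates. 2) Compound, 48 h, 5 concentrations. 3) Linear interpolation between surrounding doses. 4) Unreached endpoint = highest concentration. TGI is the concentration that stops growth completely.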

Experiments:
Assay in all cases: DTP human tumour cell line panel, 48 h
MDA-MB-435 = test system: MDA-MB-435
HCT-15 colon = test system: HCT-15 colon
MDA-MB-231 breast = test system: MDA-MB-231 breast
MOLT-4 leukemia = test system: MOLT-4 leukemia
HCC-2998 colon = test system: HCC-2998 colon
HL-60(TB) leukemia = test system: HL-60(TB) leukemia
A498 renal = test system: A498 renal
SW-620 colon = test system: SW-620 colon
RPMI-8226 leukemia = test system: RPMI-8226 leukemia
NCI/ADR-RES ovarian = test system: NCI/ADR-RES ovarian
A549 NSCLC = test system: A549 NSCLC
HOP-62 NSCLC = test system: HOP-62 NSCLC
HT29 colon = test system: HT29 colon
UACC-62 melanoma = test system: UACC-62 melanoma
DU-145 prostate = test system: DU-145 prostate
BT-549 breast = test system: BT-549 breast

| SMILES | TGI (MDA-MB-435) [µM] | TGI (HCT-15 colon) [µM] | TGI (MDA-MB-231 breast) [µM] | TGI (MOLT-4 leukemia) [µM] | TGI (HCC-2998 colon) [µM] | TGI (HL-60(TB) leukemia) [µM] | TGI (A498 renal) [µM] | TGI (SW-620 colon) [µM] | TGI (RPMI-8226 leukemia) [µM] | TGI (NCI/ADR-RES ovarian) [µM] | TGI (A549 NSCLC) [µM] | TGI (HOP-62 NSCLC) [µM] | TGI (HT29 colon) [µM] | TGI (UACC-62 melanoma) [µM] | TGI (DU-145 prostate) [µM] | TGI (BT-549 breast) [µM] |
| --- | --- | --- | --- | --- | --- | --- | --- | --- | --- | --- | --- | --- | --- | --- | --- | --- |
| CCOC(=O)/C1=C(\C)N(Cc2ccccc2)C(=O)c2ccccc2C(=O)c2c(OC(C)=O)ccc(OC(C)=O)c21 | > 100 | > 100 | > 100 | > 100 | 37.4 | 79.1 | > 100 | > 100 | 45.1 | > 100 | > 100 | > 100 | > 100 | > 100 | – | – |
| Cc1c(N)c(C#N)c2n(C)c3ncccc3n2c1=O | – | > 100 | – | > 100 | > 100 | > 100 | – | > 100 | > 100 | – | > 100 | > 100 | > 100 | > 100 | – | – |
| NN/C(=N\S(=O)(=O)c1cc(S(=O)(=O)c2ccccc2)cs1)Nc1ccc(Cl)cc1 | – | > 100 | > 100 | 56.2 | – | 32.7 | > 100 | > 100 | > 100 | > 100 | > 100 | > 100 | > 100 | 43.2 | > 100 | > 100 |
| C[Si](C)(C)CCOCN(C(=O)C1=CCC2(CC1)OCCO2)c1ccccc1I | 33.8 | 41.6 | 56.6 | 98.7 | 50.5 | – | 27.3 | 68 | 52.2 | > 100 | 88.2 | 42.1 | > 100 | 41.3 | > 100 | – |
| Cc1ccc(S(=O)(=O)NC(=O)NC(CCCCN)C(=O)O)cc1 (stereo not given) | – | > 100 | > 100 | > 100 | – | > 100 | – | > 100 | > 100 | > 100 | > 100 | > 100 | – | > 100 | > 100 | > 100 |
| O=S(=O)(N=[Se](=O)(c1ccccc1)c1ccccc1)c1ccccc1 | > 100 | > 100 | > 100 | > 100 | > 100 | 88.1 | > 100 | > 100 | > 100 | > 100 | – | > 100 | > 100 | – | – | – |
| CC1=CP(=O)(OC(C)C)C=C(C)C1=C(Cl)Cl (stereo not given) | – | > 100 | – | > 100 | > 100 | > 100 | – | > 100 | > 100 | – | 97.8 | > 100 | > 100 | > 100 | – | – |
| O=C(O[C@H](/C=C/c1ccccc1)P1(=O)N(Cc2ccccc2)[C@H]2CCCC[C@@H]2N1Cc1ccccc1)c1ccccc1 | 46.2 | > 100 | 25.7 | – | > 100 | > 100 | > 100 | > 100 | 17.8 | > 100 | > 100 | > 100 | > 100 | > 100 | – | > 100 |
| CC(=O)c1ccc(NC(=O)C(=O)CC(=O)c2sc(-n3nc(-c4ccccc4)cc3-c3ccccc3)nc2C)cc1 | – | > 100 | – | > 100 | > 100 | > 100 | > 100 | > 100 | > 100 | – | > 100 | > 100 | > 100 | > 100 | – | – |
| CC(=O)Nc1ccc2cc(C#N)c(=O)[nH]c2n1 | > 100 | > 100 | > 100 | > 100 | > 100 | – | > 100 | > 100 | > 100 | > 100 | > 100 | > 100 | – | – | – | > 100 |
| CC12CCC(=O)N1[C@@H](c1ccccc1)[C@@H](c1ccccc1)O2 (stereo not given in full) | – | > 100 | – | > 100 | > 100 | > 100 | > 100 | > 100 | – | – | > 100 | > 100 | > 100 | > 100 | – | – |
| COC(=O)CSc1cc(Cl)c(C)cc1S(=O)(=O)Nc1n[nH]c(N)n1 | – | > 10 | – | > 10 | > 10 | > 10 | > 10 | > 10 | > 10 | > 10 | > 10 | > 10 | > 10 | – | > 10 | > 10 |
| COC1(OC)CCCCCCCCC(OC)(OC)CCCCCCCC1 | > 100 | > 100 | – | – | > 100 | > 100 | > 100 | > 100 | – | > 100 | > 100 | > 100 | > 100 | > 100 | > 100 | – |
| CCc1cccc(C(C)C)c1NC(=O)C(=O)Nn1c(=S)[nH]c2ccccc2c1=O | > 100 | > 100 | > 100 | > 100 | > 100 | – | > 100 | > 100 | > 100 | > 100 | > 100 | > 100 | > 100 | > 100 | – | > 100 |
| COC(=O)c1ccccc1/C=C1\Cc2ccc3c(c2C1=O)CCC3 | > 100 | > 100 | > 100 | > 100 | > 100 | > 100 | > 100 | > 100 | > 100 | > 100 | > 100 | > 100 | > 100 | > 100 | > 100 | – |
| COc1ccc(NCc2cccc3c(=O)c4ccc(Cl)cc4oc23)cc1 | > 100 | > 100 | > 100 | > 100 | > 100 | – | > 100 | > 100 | > 100 | > 100 | > 100 | > 100 | – | > 100 | – | > 100 |
